Test results published in patent publication US4499104A, “Imidazole compound, the process for its preparation, and therapeutically active compositions containing same” (priority 1976, dated 1985).

Legend:
[1] = Pulminary edema by carrageen (Sancilio method, pleural exudate); type: in vivo, Wistar-Roux-Ocefa rats; details: for ml of exudate: 30 mg/Kg, pleural cavity
Description: Using the Sancilio method (Sancilio F. L., J. Pharmacol. Exptl. Therap., 168, 199 (1969); Sancilio L. F. Rodrigues R., Proc. Soc. Exptl. Biol. Med., 123, 707 (1969); Sancilio L. F. Lawrence R., Proc. Soc. Exptl. Biol. Med., 127, 597 (1968), pulminary irritation was induced in Wistar-Roux-Ocefa rats and the capacity of chlorophenazole and other drugs to prevent production of pleural exudate was measured. 5 ml of a 0.025% carrageen solution and 0.075% Evans blue were injected into the pleurea.
The action of chlorophenazole, mepyrazole and phenylbutazone were evaluated from the quantity of exudate present in the pleural cavity after 1 and 6 hours.

[2] = in vivo; details: rat, po
[3] = Edema by carrageen in normal and adrenoprival (suprarenectomised) rats; type: in vivo, rat; parameters: Edema by carrageen: unit not given beside the values; details: adrenoprival rats
Description: (§1) A 1% physiological solution of carrageen was used. Rats of the Wistar-Roux-Ocefa stock having a weight of 150±30 g were used. The drugs were suspended in 1% carboxymethylcellulose or dissolved in distilled water and administered orally one hour before the inflammatory agent in a volume of 0.5 ml/100 g. The carrageen was adminstered subcutaneously in the subplanetary region of one of the rear paws. The volume of the paw was measured platysmagraphically initially and then after 1.5 hour, 3 hours and 5 hours after administering the carrageen. One inflammation unit was defined as the displacement of 0.01 ml of Hg.
(§2) The edema was evaluated as the difference in volume of the rear paw before and after the carrageen. The DE 50 was calculated by the probits method and graphically. The comparison drugs used were phenylbutazone and niflumic acid.
To evaluate if the activity of the chlorophenazole on edema by carrageen was influenced by stimulation of the suprarenes, experiments were carried out with suprarenectomised rats. Normal rats were also compared with falsely operated rats to evaluate the influence of the operational trauma.

[4] = Edema by carrageen (rat paw), antiedematous activity; type: in vivo, Rats of the Wistar-Roux-Ocefa stock; details: for IT (DL50/DE50): DL50/DE50, os; for ED50: Rattus norvegicus, po, os, probits method and graphically, read-out: DE50 (the source's name)
Description: as §1, §2

[5] = Action on sleep by barbiturates; type: in vivo, Wistar-Ocefa rats; details: pentobarbital sodium 40 mg/kg alone
Description: […] Loss of the redressment reflex was taken to indicate commencement of sleep. The chlorophenazone was administered orally with a dose of 1/10 of the DL50. The induction time and the duration of sleep were measured.

[6] = test system: rats; test: Chronic toxicity, first experiment (60 days); type: in vivo, Wistar-Ocefa rats; details: rat, in vivo
Description: Wistar-Ocefa rats of both sexes weighing 70-90 g were used, divided into groups of 30 animals (15 males and 15 females) to a total of […].
Chlorophenazole and phenylbutazone (reference drug) were administered orally for a period of 60 days in doses of 30-60 mg/kg of chlorophenazole and 8-160 mg/kg of phenylbutazone (first experiment) and for a period of 5 months in doses of 6-12 mg/kg of chlorophenazole and 16 mg/kg of phenylbutazone (second experiment).
The following parameters were determined periodically: behavior, general state, food consumption, body weight, red blood cell number, white blood cell number, leucocite formula, hemoglobin, hematocrit, globular value, total proteins, glycemia, azotemia, cholesterol, total lipids, triglycerides, creatinine, GOT, GPT, urine analysis. At the end of the experiment the animals were sacrificed, their general state was observed, the following organs were weighed: liver, spleen, kidneys, supranenes, ovary and testicles, lungs, heart, stomach.

Row | Structure (SMILES) | ml of exudate [1] [mL] | LD50 [2] [mg/kg] | Δ Volume of the inflamed paw ([4]; 10 mg/kg oral, 1.5 hours) [UPI] | Δ Volume of the inflamed paw ([4]; 10 mg/kg oral, 3 hours) [UPI] | Δ Volume of the inflamed paw ([4]; 10 mg/kg oral, 5 hours) [UPI] | Δ Volume of the inflamed paw ([4]; 20 mg/kg oral, 1.5 hours) [UPI] | Δ Volume of the inflamed paw ([4]; 20 mg/kg oral, 3 hours) [UPI] | Δ Volume of the inflamed paw ([4]; 20 mg/kg oral, 5 hours) [UPI] | Δ Volume of the inflamed paw ([4]; 40 mg/kg oral, 1.5 hours) [UPI] | Δ Volume of the inflamed paw ([4]; 40 mg/kg oral, 3 hours) [UPI] | Δ Volume of the inflamed paw ([4]; 40 mg/kg oral, 5 hours) [UPI] | IT (DL50/DE50) [4] | ED50 [4] [mg/kg] | other results
1 | COc1cc(C)nc(-n2nc(C)cc2OC)n1 [Mepyrazole] | 4.38 |  |  |  |  |  |  |  |  |  |  |  |  | 
2 | O=C(O)c1cccnc1Nc1cccc(C(F)(F)F)c1 [Niflumic acid] |  | 30 | 25 | 51 | 80 | 20 | 35 | 56 | 18 | 33 | 49 | 11.40 | 7 | Edema by carrageen ([3]; 10 mg/kg, 1.5 hours): 25; Edema by carrageen ([3]; 10 mg/kg, 3 hours): 34; Edema by carrageen ([3]; 20 mg/kg, 1.5 hours): 20; Edema by carrageen ([3]; 20 mg/kg, 3 hours): 24; Edema by carrageen ([3]; 40 mg/kg, 1.5 hours): 19; Edema by carrageen ([3]; 40 mg/kg, 3 hours): 30
3 | CCCC(C)C1(CC)C(=O)NC(=O)NC1=O (stereo not shown) [Pentobarbital sodium, reference compound] |  |  |  |  |  |  |  |  |  |  |  |  |  | Induction time [5]: 4.4 min; Sleeping time [5]: 49.1 min
4 | CCCCC1C(=O)N(c2ccccc2)N(c2ccccc2)C1=O [Phenylbutazone] | 3.12 | 351 | 28 | 65 | 88 | 26 | 59 | 74 | 24 | 51 | 73 | 23.40 | 15 | activity on pleural exudate ([1]; exudate after 1 and 6 hours): significantly active; cholesterol [6]: the same for cholesterol at the larger doses; stomach appearance [6]: contract and pale
